Values joined by “and” are separate entries in the source; they are usually repeats but may differ in a detail not shown here. Equal values may be shown once. Read-outs that look alike come from different tables or passages of the source.
Assays:
Format in all cases: cell-based
[1] = molecular target: T1, OATP2B1 (Homo sapiens, UniProt O94956); assay: Pyranine transport inhibition in A431 cells overexpressing OATP2B1
T1 construct: expressed in transfected cells; host or cells: A431 cells
T1 sequence (O94956 1-709): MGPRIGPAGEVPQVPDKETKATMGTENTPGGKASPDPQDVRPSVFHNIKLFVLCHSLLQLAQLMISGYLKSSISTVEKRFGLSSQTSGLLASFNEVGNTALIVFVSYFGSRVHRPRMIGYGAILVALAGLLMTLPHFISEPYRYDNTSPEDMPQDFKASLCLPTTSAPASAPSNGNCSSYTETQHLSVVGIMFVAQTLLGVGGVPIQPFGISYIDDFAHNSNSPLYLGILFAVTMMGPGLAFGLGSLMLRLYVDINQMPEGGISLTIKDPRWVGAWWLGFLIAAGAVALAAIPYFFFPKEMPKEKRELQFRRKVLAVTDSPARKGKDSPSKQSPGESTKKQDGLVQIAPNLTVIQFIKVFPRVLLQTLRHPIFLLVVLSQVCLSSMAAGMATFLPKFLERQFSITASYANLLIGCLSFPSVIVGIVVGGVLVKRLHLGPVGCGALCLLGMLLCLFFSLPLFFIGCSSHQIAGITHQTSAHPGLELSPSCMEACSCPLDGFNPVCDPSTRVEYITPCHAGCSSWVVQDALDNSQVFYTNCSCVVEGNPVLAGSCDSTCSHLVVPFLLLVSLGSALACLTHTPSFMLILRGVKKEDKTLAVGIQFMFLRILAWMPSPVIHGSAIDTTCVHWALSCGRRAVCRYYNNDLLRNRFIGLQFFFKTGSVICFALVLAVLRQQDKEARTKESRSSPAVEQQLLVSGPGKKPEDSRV
Method: (§1) A431 cells overexpressing OATP1B1, OATP1B3, or OATP2B1 or their mock transfected controls were generated previously[30] and maintained in Dulbecco’s modified Eagle medium (DMEM, Gibco, Thermofisher Scientific, Waltham, MA, US) supplemented with 10% fetal bovine serum, 2 mM L-glutamine, 100 units/mL penicillin, and 100 μg/mL streptomycin. Expression and function of OATPs in the cell lines were checked regularly.
(§2) Interaction with OATP1B1, OATP1B3, or OATP2B1 was tested in an indirect transport assay using pyranine (8-hydroxypyrene-1,3,6-trisulfonic acid trisodium salt, H1529, Sigma, Merck, Budapest, Hungary) as the test substrate[31],[32] A431 cells overexpressing OATP1B1, OATP1B3, or OATP2B1 or their mock transfected controls were seeded on 96-well plates in a density of 8 × 10^4 cells per well in 200 μL of cell culture medium 1 day prior to the transport measurements. […] The transport reaction was started by the addition of 50 μL of uptake buffer containing pyranine in a final concentration of 10 μM (OATP1B1) or 20 μM (OATP1B3 and OATP2B1), and the cells were further incubated at 37 °C for 15 min (OATP1B1 and OATP2B1) or 30 min (OATP1B3). The reaction was stopped by removing the supernatant. After repeated washing with ice-cold PBS, fluorescence was determined in an Enspire plate reader (PerkinElmer, Waltham, MA) with excitation/emission wavelengths of 460/510 nm. OATP-dependent transport was calculated by extracting fluorescence measured in mock transfected cells and normalized to the fluorescence signal obtained in the absence of the tested compounds (100%). Experiments were repeated in at least three biological replicates.

[2] = molecular target: T2, OATP1B3 (Homo sapiens, UniProt Q9NPD5); assay: Pyranine transport inhibition in A431 cells overexpressing OATP1B3
T2 construct: expressed in transfected cells; host or cells: A431 cells
T2 sequence (Q9NPD5 1-702): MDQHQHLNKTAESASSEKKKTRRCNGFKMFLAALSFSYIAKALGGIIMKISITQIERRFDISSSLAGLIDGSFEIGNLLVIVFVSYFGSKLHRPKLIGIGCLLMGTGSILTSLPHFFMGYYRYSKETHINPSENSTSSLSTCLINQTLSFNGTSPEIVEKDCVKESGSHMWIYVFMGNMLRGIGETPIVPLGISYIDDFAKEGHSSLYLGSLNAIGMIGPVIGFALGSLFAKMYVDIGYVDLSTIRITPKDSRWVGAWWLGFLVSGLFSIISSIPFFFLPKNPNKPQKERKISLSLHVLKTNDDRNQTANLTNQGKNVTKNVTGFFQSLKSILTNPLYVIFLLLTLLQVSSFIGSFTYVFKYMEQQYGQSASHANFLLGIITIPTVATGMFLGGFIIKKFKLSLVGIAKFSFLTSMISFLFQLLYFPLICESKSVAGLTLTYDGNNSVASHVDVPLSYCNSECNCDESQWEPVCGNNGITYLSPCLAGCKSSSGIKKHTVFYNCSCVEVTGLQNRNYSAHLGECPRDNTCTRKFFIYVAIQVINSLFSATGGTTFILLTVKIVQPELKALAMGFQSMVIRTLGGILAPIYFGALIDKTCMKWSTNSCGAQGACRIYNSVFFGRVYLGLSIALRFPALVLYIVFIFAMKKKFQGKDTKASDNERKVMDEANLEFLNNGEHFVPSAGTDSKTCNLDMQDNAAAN
Method: as §1, §2

[3] = molecular target: T3, OATP1B1 (Homo sapiens, UniProt Q9Y6L6); assay: Pyranine transport inhibition in A431 cells overexpressing OATP1B1; details: for IC50: read-out: IC50 (μM) OATP1B1
T3 construct: expressed in transfected cells; host or cells: A431 cells
T3 sequence (Q9Y6L6 1-691): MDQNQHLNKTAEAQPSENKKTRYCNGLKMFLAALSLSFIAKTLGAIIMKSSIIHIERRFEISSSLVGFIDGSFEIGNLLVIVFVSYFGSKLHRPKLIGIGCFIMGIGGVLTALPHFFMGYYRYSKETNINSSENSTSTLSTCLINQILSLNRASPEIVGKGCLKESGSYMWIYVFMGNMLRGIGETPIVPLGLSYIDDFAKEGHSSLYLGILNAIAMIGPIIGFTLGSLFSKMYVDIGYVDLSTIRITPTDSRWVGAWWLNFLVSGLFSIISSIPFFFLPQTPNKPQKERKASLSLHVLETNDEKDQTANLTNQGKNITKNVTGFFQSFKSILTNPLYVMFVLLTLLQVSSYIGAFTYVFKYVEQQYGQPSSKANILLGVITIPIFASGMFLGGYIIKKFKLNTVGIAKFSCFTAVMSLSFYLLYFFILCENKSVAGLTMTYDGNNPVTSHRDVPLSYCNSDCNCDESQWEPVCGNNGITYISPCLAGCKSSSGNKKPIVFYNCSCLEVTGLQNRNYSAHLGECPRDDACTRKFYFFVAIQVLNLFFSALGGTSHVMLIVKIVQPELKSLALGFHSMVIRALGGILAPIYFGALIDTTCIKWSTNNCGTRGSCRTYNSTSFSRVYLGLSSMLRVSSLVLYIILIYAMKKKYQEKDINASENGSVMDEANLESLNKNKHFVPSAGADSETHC
Method: as §1, §2

[4] = initial three-point screen (1, 10, 100 μM), category by concentration needed for 50% inhibition, pyranine 20 μM, 15 min, pH 5.5, read-out: IC50 (μM) OATP2B1
[5] = initial three-point screen (1, 10, 100 μM), category by concentration needed for 50% inhibition, pyranine 20 μM, 30 min, pH 5.5, read-out: IC50 (μM) OATP1B3
[6] = initial three-point screen (1, 10, 100 μM), category by concentration needed for 50% inhibition, pyranine 10 μM, 15 min, pH 5.5
[7] = initial three-point screen (1, 10, 100 μM), category by concentration needed for 50% inhibition, pyranine 20 μM, 30 min, pH 5.5
[8] = IC50 (μM) OATP2B1, initial three-point screen (1, 10, 100 μM), category by concentration needed for 50% inhibition, pyranine 20 μM, 15 min, pH 5.5
[9] = IC50 (μM) OATP1B3, initial three-point screen (1, 10, 100 μM), category by concentration needed for 50% inhibition, pyranine 20 μM, 30 min, pH 5.5

SMILES | IC50 [1, 4] [µM] | IC50 [2, 5] [µM] | IC50 [3, 6] [µM] | IC50 (μM) OATP1B3 [2, 7] | IC50 (μM) OATP1B1 [3, 6] | further results
Cc1occc1-c1nnc(SCC(=O)c2ccc3c(c2)NC(=O)CO3)n1Cc1ccccc1 [A3, Cc1occc1c2nnc(SCC(=O)c3ccc4OCC(=O)Nc4c3)n2Cc5ccccc5] | 1 to 10 | > 10 | 1 to 10 |  |  | 
Fc1ccc(C2CC(c3cccs3)=NN2c2nc(-c3ccccc3)c3cc(Cl)ccc3n2)cc1 (stereo not drawn) [A5, Fc1ccc(cc1)C2CC(=NN2c3nc(c4ccccc4)c5cc(Cl)ccc5n3)c6cccs6] | > 10 |  |  | no effect | no effect | 
O=C(CN1C(=O)NC(Cc2c[nH]c3ccccc23)C1=O)Nc1ccc(OCc2ccccc2)cc1 (stereo not drawn) [A6, O=C(CN1C(=O)NC(Cc2c[nH]c3ccccc23)C1=O)Nc4ccc(OCc5ccccc5)cc4] | > 10 | > 10 |  |  | no effect | 
CC(C)(C)c1ncc(NC(=O)c2ccccc2-c2ncc(-c3ccccc3)o2)cn1 [A7, CC(C)(C)c1ncc(NC(=O)c2ccccc2c3oc(cn3)c4ccccc4)cn1] | 1 to 10 |  |  | Activated | no effect | 
O=C(Cc1ccccc1[N+](=O)[O-])NCC1CC2c3ccccc3C1c1ccccc12 (stereo not drawn) [B4, [O-][N+](=O)c1ccccc1CC(=O)NCC2CC3c4ccccc4C2c5ccccc35] |  |  |  |  |  | IC50 [1, 8]: 1 to 10 µM; IC50 ([1]; full dose-response curve, eight concentrations, Hill1 fit, read-out: IC50 (μM) OATP2B1): 2.4 µM and 2.37 µM; IC50 [2, 9]: 1 to 10 µM; IC50 ([2]; full dose-response curve, eight concentrations, Hill1 fit, read-out: IC50 (μM) OATP1B3): ~10 µM; IC50 ([3]; full dose-response curve, eight concentrations, Hill1 fit): ~10 µM; IC50 at 15 min ([3]; human, pH 5.5): > 10 µM

Further lines, with some results ahead:

IC50 [1, 4] [µM] | IC50 [2, 5] [µM] | IC50 [3, 6] [µM] | IC50 (μM) OATP1B3 [2, 7] | IC50 (μM) OATP1B1 [3, 6] | SMILES | further results
1 to 10 | 1 to 10 | 1 to 10 |  |  | N#Cc1c(NC(=O)COC(=O)CN2C(=O)NC3(CCc4ccccc43)C2=O)sc2c1CCCCC2 (stereo not drawn) [A2, O=C(COC(=O)CN1C(=O)NC2(CCc3ccccc23)C1=O)Nc4sc5CCCCCc5c4C#N] | 
> 10 |  |  | no effect | no effect | Fc1ccccc1-c1cc(-c2ccccc2)c2c3c(sc2n1)CCCC3 [A4, Fc1ccccc1c2cc(c3ccccc3)c4c5CCCCc5sc4n2] | 
 |  |  |  | no effect | Cc1ccc(NC(=O)C(Sc2nnc3n2CCCCC3)c2ccccc2)cc1Cl (stereo not drawn) [B2, Cc1ccc(NC(=O)C(Sc2nnc3CCCCCn23)c4ccccc4)cc1Cl] | IC50 [1, 8]: > 10 µM; IC50 [2, 9]: > 10 µM
1 to 10 | > 10 | > 10 |  |  | O=C(CC12CC3CC(CC(C3)C1)C2)NCC(=O)N1CCN(S(=O)(=O)c2ccccc2F)CC1 [B3, Fc1ccccc1S(=O)(=O)N2CCN(CC2)C(=O)CNC(=O)CC34CC5CC(CC(C5)C3)C4] | 
